Reference: ChEMBL document CHEMBL1201862, “PubChem BioAssay data set” (2004)
Active and inactive are the calls of the source.

Experiments:
[1] = target: 26S proteasome non-ATPase regulatory subunit 14 (Homo sapiens, UniProt O00487); experiment: inhibition of proteasome subunit RPN11 – biochemical, fluorescence polarization, uHTS hits, confirmation (AID 602368); type: functional
[2] = target: 72 kDa type IV collagenase (Homo sapiens, UniProt P08253); experiment: Dose Response validation of uHTS RPN11 inhibitor hits using a MMP-2 Fluorescence assay.; type: functional
Chain of 72 kDa type IV collagenase (P08253 whole entry): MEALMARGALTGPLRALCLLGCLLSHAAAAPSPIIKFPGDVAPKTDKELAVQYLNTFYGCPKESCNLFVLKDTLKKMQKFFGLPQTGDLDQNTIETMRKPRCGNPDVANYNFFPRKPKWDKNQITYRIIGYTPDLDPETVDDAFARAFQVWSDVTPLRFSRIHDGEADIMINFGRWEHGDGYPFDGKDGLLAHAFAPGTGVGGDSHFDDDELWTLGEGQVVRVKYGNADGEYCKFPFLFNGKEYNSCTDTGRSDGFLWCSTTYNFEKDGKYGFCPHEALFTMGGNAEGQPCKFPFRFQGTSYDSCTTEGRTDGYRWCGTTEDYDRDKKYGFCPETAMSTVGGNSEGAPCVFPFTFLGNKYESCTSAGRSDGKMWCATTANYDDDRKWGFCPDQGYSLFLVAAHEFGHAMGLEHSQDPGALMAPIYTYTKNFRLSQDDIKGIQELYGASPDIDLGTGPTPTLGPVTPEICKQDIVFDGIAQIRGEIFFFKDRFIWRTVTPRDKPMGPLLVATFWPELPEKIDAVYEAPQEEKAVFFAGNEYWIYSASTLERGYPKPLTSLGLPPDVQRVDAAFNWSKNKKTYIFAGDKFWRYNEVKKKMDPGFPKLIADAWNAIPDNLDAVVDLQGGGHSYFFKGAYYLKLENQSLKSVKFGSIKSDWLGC

Prothrombin = Prothrombin (Bos taurus, UniProt P00735); experiment: thrombin inhibition, dose response, biochemical, fluorescence polarization, uHTS hits (AID 602369); type: functional
Cytochrome P450 2D6 = Cytochrome P450 2D6 (Homo sapiens, UniProt P10635);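 note: CYP2D6 member of a cytochrome P450 panel assay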
Chain of Cytochrome P450 2D6 (P10635 whole entry): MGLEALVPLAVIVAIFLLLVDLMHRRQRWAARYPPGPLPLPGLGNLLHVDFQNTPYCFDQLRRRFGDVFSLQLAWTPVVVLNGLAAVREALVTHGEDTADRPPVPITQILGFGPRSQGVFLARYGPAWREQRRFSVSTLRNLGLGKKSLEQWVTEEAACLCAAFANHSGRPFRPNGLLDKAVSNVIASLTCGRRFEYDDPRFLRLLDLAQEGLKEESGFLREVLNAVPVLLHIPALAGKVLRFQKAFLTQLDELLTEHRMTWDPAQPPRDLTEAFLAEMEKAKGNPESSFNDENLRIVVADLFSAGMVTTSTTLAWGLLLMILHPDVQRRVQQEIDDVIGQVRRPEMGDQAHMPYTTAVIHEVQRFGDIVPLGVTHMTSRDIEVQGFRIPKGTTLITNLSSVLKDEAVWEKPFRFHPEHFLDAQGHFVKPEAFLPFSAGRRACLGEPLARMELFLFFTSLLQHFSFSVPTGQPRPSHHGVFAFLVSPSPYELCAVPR

Cytochrome P450 1A2 = target: T1, Cytochrome P450 1A2 (Homo sapiens, UniProt P05177);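 note: PubChem cytochrome P450 panel assay, CYP1A2 panel member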
T1 sequence (P05177 whole entry): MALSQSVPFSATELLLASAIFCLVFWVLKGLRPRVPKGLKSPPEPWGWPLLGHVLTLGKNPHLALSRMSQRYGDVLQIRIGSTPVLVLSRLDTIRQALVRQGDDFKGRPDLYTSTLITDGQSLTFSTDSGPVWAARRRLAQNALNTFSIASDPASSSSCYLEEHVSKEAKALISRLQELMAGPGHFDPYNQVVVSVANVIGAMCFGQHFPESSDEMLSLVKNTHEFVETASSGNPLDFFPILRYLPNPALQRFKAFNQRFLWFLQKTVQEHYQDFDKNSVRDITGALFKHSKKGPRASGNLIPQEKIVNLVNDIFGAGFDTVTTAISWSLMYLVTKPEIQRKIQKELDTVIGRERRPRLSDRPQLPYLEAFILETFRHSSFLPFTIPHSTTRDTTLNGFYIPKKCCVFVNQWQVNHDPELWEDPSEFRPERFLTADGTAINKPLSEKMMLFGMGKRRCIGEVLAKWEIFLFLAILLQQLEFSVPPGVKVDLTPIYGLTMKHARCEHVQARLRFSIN

[3] = CAL PDZ domain peptide-binding inhibitors, dose response, biochemical, fluorescence polarization, untagged CAL PDZ, cherry-pick, set 2 (AID 602254); type: functional
Melanocortin receptor 4 = Melanocortin receptor 4 (Homo sapiens, UniProt P32245); experiment: MC4R antagonist potency on cAMP, dose response, cell-based, TR-FRET, biased antagonists (AID 602298); type: functional;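 note: antagonist potency against agonist-stimulated cAMP production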
Chain of Melanocortin receptor 4 (P32245 whole entry): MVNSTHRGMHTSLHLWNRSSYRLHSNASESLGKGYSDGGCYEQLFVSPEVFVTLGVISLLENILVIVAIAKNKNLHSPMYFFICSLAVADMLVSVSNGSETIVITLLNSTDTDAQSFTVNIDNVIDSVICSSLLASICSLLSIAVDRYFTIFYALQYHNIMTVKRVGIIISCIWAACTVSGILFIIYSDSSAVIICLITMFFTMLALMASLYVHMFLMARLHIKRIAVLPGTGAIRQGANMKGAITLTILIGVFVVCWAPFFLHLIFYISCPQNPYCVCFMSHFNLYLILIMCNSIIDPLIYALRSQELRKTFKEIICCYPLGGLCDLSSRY

[4] = nonselective inhibitors of cellular cAMP signaling, dose response, counter-screen for MC4R biased antagonist project, cell-based, TR-FRET cAMP detection (AID 602305); type: functional;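 note: U2OS cells stimulated with forskolin near its EC80 as the cAMP inducer; potency is for inhibition of forskolin-stimulated cAMP signaling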
[5] = Luminescence Cell-Based Dose Confirmation HTS to Identify Activators of 5'UTR Stem-Loop Driven Alpha-Synuclein mRNA Translation in H4 Neuroglioblastoma Cells. [Related pubchem assays: 1829 (Project Summary), 1814 (Primary HTS)]; type: functional
[6] = Luminescence Cell-Based Dose Response HTS to Identify Activators of Luciferase Translation or Activity in H4 […] Cells. [Related pubchem assays: 1829 (Project Summary), 1814 (Primary HTS)]; type: functional
H4 = experiment: Luminescence Cell-Based Dose Response HTS to Identify Activators of 5'UTR Stem-Loop Driven Prion Protein mRNA Translation in H4 Neuroglioblastoma Cells. [Related pubchem assays: 1829 (Project Summary), 1814 (Primary HTS)]; type: functional; details: Homo sapiens
HeLa = experiment: HeLa cell cytotoxicity, dose response, cytotoxicity control for MITF activator project, CellTiter-Glo luminescence, cherry-pick samples (AID 540259); type: functional, cell-based; details: Homo sapiens
[7] = target: T2, Oxysterols receptor LXR-beta (Homo sapiens, UniProt P55055); type: functional, cell-based;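 note: agonist activity at LXR measured by a cell-based luminescence readout across a dose range, run as a counterscreen for daf-12 agonists; HEK293 cells with Gal4-LXR fusion and GAL4-driven luciferase reporter; potency for activation of Gal4-LXR reporter so compounds are agonists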
T2 sequence (P55055 whole entry): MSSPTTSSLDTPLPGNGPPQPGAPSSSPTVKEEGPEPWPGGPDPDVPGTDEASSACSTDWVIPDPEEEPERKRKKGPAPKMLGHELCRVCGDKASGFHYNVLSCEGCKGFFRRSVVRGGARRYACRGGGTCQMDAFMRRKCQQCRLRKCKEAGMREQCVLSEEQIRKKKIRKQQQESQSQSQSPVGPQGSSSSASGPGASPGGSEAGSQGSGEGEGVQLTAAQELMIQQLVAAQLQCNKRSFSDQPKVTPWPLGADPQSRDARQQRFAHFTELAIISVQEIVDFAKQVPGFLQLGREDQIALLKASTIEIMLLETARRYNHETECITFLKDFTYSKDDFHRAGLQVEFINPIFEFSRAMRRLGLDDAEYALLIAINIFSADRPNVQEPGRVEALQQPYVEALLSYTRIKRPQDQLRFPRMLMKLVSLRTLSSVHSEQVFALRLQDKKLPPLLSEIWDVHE

Chain of 26S proteasome non-ATPase regulatory subunit 14 (O00487 whole entry): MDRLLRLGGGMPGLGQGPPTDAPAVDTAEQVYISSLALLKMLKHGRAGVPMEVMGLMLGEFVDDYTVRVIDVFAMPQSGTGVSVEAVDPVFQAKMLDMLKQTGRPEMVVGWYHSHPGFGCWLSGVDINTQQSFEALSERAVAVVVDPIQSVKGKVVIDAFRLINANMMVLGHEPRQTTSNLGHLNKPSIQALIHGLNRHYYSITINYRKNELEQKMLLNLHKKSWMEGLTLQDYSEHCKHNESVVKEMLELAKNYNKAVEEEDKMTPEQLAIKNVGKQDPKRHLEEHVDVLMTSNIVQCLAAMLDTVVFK

**Q.** With CN1/C(=C\C(=O)COC(=O)Cn2nnc(-c3ccccc3)n2)C(C)(C)c2ccccc21 as the compound, how does the IC50 [1] read?
**A.** The IC50 was 34.5 µM (active).

**Q.** And the IC50 [2]?
**A.** The IC50 was > 100 µM (inactive).

**Q.** What about the IC50 (Prothrombin) of the same compound?
**A.** Its IC50 is 51.6 µM (active).

**Q.** What about the AC50 (Cytochrome P450 2D6) of the same compound?
**A.** Its AC50 is 31.6 µM (inconclusive).

**Q.** And the AC50 (Cytochrome P450 1A2)?
**A.** Its AC50 is 1.58 µM (inconclusive).

**Q.** Which AC50 [3] does the source give for Cc1cc2ccccc2n1CCNCc1c(C(=O)N2CCOCC2)nc2ccccn12 here?
**A.** Its AC50 is 110 µM (active).

**Q.** For CCOC(=O)c1c(NC(=O)C(C)OC(=O)C2=COCCO2)sc2c1CCCC2 (stereo not drawn), which IC50 (Melanocortin receptor 4) is on record?
**A.** The IC50 was > 7.18 µM (active).

**Q.** What about the IC50 [4] of the same compound?
**A.** The IC50 was > 64.6 µM (inactive).

**Q.** What does the source list for Cc1nn(C(=O)c2cccs2)c(N)c1-c1ccccc1?
**A.** EC50 [5]: 13.7 µM (active); EC50 [6]: 19 µM (active); EC50 (H4): > 120 µM (not active); AC50 (HeLa): 30.1 µM (active); EC50 [7]: > 67.5 µM (inactive)
